In paper PMC6145176 (Bioorganic & medicinal chemistry, 2017):
Read-outs that look alike come from different tables or passages of the source. Marks after values point to notes of the source that are not given here.

Legend:
MAGI-CCR5 cells = assay: MAGI-CCR5 parallel cytotoxicity testing; assay type: cell-based; conditions: for TC50 (A17 row) / TC50 (NL4-3 row): MAGI-CCR5 cells; for TC50 (A17 row): printed in the A17 line of Table 10; for TC50 (NL4-3 row): printed in the NL4-3 line of Tables 7 and 10; for MAGI-CCR5 TC50: uninfected MAGI-CCR5 cells, 48 h, MTS, concentration that reduces cell viability by 50%
PBMCs = assay: PBMC cytotoxicity; assay type: cell-based, human; conditions: six days, MTS, concentration that reduces cell viability by 50%
HIV wildtype (NL4-3) = assay: MAGI-CCR5 antiviral assay, HIV wildtype; assay type: cell-based; conditions: HIV wildtype (NL4-3) in MAGI-CCR5 cells; for IC50: read-out: IC50, virus NL4-3; for IC90: read-out: IC90, virus NL4-3
HIV-1Ba-L = assay: MAGI-CCR5 antiviral assay; assay type: cell-based; conditions: for IC50: concentration that reduces viral replication by 50%; for IC90: read-out: MAGI-CCR5 IC90, concentration that reduces viral replication by 90%
[1] = Plasma stability in vitro assay; assay type: in vitro ADME; conditions: percent remaining after incubation for 60 min. at 37 °C, heparinized rat plasma
[2] = Microsomal stability in vitro assay; assay type: in vitro ADME; conditions: percent remaining after incubation for 60 min. at 37 °C, rat liver microsomes
[3] = Parallel artificial membrane permeation assay; conditions: for Papp at 100 μM: PAMPA, pH 7.2
[4] = molecular target: HIV-1 reverse transcriptase (RT) (Human immunodeficiency virus type 1 group M subtype B, UniProt P04585); assay: RT biochemical assay; conditions: 10 nM HIV-1 RT, 37 °C, 1 h
[5] = read-out: MAGI-CCR5 IC50, HIV-1Ba-L in MAGI-CCR5 cells, 48 h
[6] = HIV-1Ba-L in MAGI-CCR5 cells, 48 h
[7] = Human immunodeficiency virus 1, MAGI-CCR5, 48 h, read-out: MAGI-CCR5 IC50, HIV-1Ba-L in MAGI-CCR5 cells, 48 h

With “3-Methyl-4-(2-(6-methyl-4-(1-methyl-1H-indol-2-yl)-2-oxo-1,2,3,4-tetrahydropyrimidin-5-yl)thiazol-4-yl)benzonitrile [1at]” as the compound, how does the “TC50 (A17 row)” value (MAGI-CCR5 cells) read?
The value was >100 µM.

And the “TC50 (NL4-3 row)” value (MAGI-CCR5 cells)?
Its value is >100 µM.

And the “MAGI-CCR5 TC50” value (MAGI-CCR5 cells)?
Its value is >100 µM.

And the “PBMC TC50” value (PBMCs)?
The value was >100 ^d μM.

What about the IC50 (HIV wildtype (NL4-3)) of the same compound?
The IC50 was 0.39 ± 0.05 µM.

And the IC90 (HIV wildtype (NL4-3))?
Its IC90 is 4.8 ± 0.6 µM.

And the IC50 (HIV-1Ba-L; [5])?
The IC50 was 0.39 ± 0.05 µM.

And the IC90 (HIV-1Ba-L; [6])?
The IC90 was 1.9 ± 0.3 µM.

Which “MAGI-CCR5 TC50” value (MAGI-CCR5 cells) does the source give for “4-(2-(6-Methyl-2-oxo-4-(pyridin-2-yl)-1,2,3,4-tetrahydropyrimidin-5-yl)thiazol-4-yl)benzonitrile [1x]” here?
The value was >100.00 µM.

And the “PBMC TC50” value (PBMCs)?
The value was >100.00 µM.

And the IC50 (HIV-1Ba-L; [5])?
Its IC50 is 2 ± 0.5 µM.

And the IC90 (HIV-1Ba-L; [6])?
The IC90 was > 100 µM.

Which “Plasma Stability (%)” value [1] does the source give for “4-(2-(6-Methyl-2-oxo-4-(pyridin-3-yl)-1,2,3,4-tetrahydropyrimidin-5-yl)thiazol-4-yl)benzonitrile [1y]” here?
The value was 89.42 ± 2.93%.

And the “MAGI-CCR5 TC50” value (MAGI-CCR5 cells)?
Its value is >100.00 µM.

What about the “PBMC TC50” value (PBMCs) of the same compound?
Its value is >100.00 µM.

What about the “Microsomal Stability (%)” value [2] of the same compound?
Its value is 75.55 ± 7.86%.

And the “PAMPA (LogPe)” value ([3]; polar brain lipid membrane, predicts BBB permeability)?
The value was −7.50 ± 0.10.

What about the IC50 (HIV-1Ba-L; [5]) of the same compound?
The IC50 was 2.9 ± 0.1 µM.

And the IC90 (HIV-1Ba-L; [6])?
The IC90 was > 100 µM.

For “4-(2-(6-Methyl-2-oxo-4-(pyridin-4-yl)-1,2,3,4-tetrahydropyrimidin-5-yl)thiazol-4-yl)benzonitrile [1z]”, which “MAGI-CCR5 TC50” value (MAGI-CCR5 cells) is on record?
Its value is >100.00 µM.

And the “PBMC TC50” value (PBMCs)?
Its value is >100.00 µM.

And the IC50 (HIV-1Ba-L; [5])?
Its IC50 is 1.4 ± 0.4 µM.

And the IC90 (HIV-1Ba-L; [6])?
Its IC90 is > 100 µM.

With “4-(2-(6-Methyl-2-oxo-4-(quinolin-2-yl)-1,2,3,4-tetrahydropyrimidin-5-yl)thiazol-4-yl)benzonitrile [1aa]” as the compound, how does the “MAGI-CCR5 TC50” value (MAGI-CCR5 cells) read?
Its value is >100.00 µM.

What about the “PBMC TC50” value (PBMCs) of the same compound?
Its value is 68.3 ± 22.1 µM.

And the IC50 (HIV-1Ba-L; [5])?
Its IC50 is 3.8 ± 1 µM.

And the IC90 (HIV-1Ba-L; [6])?
The IC90 was 98.3 ± 1.7 µM.

Which results are given for “4-(2-(6-Methyl-2-oxo-4-(quinolin-4-yl)-1,2,3,4-tetrahydropyrimidin-5-yl)thiazol-4-yl)benzonitrile [1ab]”?
MAGI-CCR5 TC50 (MAGI-CCR5 cells): >100.00 µM; PBMC TC50 (PBMCs): >100.00 µM; IC50 (HIV-1Ba-L; [5]): 1.5 ± 0.3 µM; IC90 (HIV-1Ba-L; [6]): 12.7 ± 3.6 µM

What does the source list for `CC1=C(c2nc(-c3ccc(C#N)cc3)cs2)C(c2cc3ccccc3n2C)NC(=O)N1` (stereo not shown) [1ad, 4-(2-(6-Methyl-4-(1-methyl-1H-indol-2-yl)-2-oxo-1,2,3,4-tetrahydropyrimidin-5-yl)thiazol-4-yl)benzonitrile]?
TC50 (A17 row) (MAGI-CCR5 cells): >100 µM; TC50 (NL4-3 row) (MAGI-CCR5 cells): >100 µM; Papp at 100 μM [3]: 0.0891 ×10⁻⁶ cm/s; IC50 (HIV-1Ba-L; [7]): 0.74 µM

With `CC1=C(c2nc(-c3ccc(C#N)cc3)cs2)C(c2ccc(F)nc2)NC(=O)N1` (stereo not shown) [1ae, 4-(2-(4-(6-Fluoropyridin-3-yl)-6-methyl-2-oxo-1,2,3,4-tetrahydropyrimidin-5-yl)thiazol-4-yl)benzonitrile] as the compound, how does the “TC50 (NL4-3 row)” value (MAGI-CCR5 cells) read?
Its value is >100 µM.

What about the Papp at 100 μM [3] of the same compound?
Its Papp at 100 μM is 0.575 ×10⁻⁶ cm/s.

Which Papp at 100 μM [3] does the source give for `CC1=C(c2nc(-c3ccc(C#N)cc3)cs2)C(c2ccc(Cl)nc2)NC(=O)N1` (stereo not shown) [1ai, 4-(2-(4-(6-Chloropyridin-3-yl)-6-methyl-2-oxo-1,2,3,4-tetrahydropyrimidin-5-yl)thiazol-4-yl)benzonitrile] here?
Its Papp at 100 μM is 0.0398 ×10⁻⁶ cm/s.

For `CC1=C(c2nc(-c3ccc(C#N)cc3)cs2)C(c2ccc(Br)nc2)NC(=O)N1` (stereo not shown) [1am, 4-(2-(4-(6-Bromopyridin-3-yl)-6-methyl-2-oxo-1,2,3,4-tetrahydropyrimidin-5-yl)thiazol-4-yl)benzonitrile], which “TC50 (NL4-3 row)” value (MAGI-CCR5 cells) is on record?
Its value is >100 µM.

What about the Papp at 100 μM [3] of the same compound?
Its Papp at 100 μM is 0.0151 ×10⁻⁶ cm/s.

What does the source list for `COc1ccc(C2NC(=O)NC(C)=C2c2nc(-c3ccc(C#N)cc3)cs2)cn1` (stereo not shown) [1an, 4-(2-(4-(6-Methoxypyridin-3-yl)-6-methyl-2-oxo-1,2,3,4-tetrahydropyrimidin-5-yl)thiazol-4-yl)benzonitrile]?
TC50 (NL4-3 row) (MAGI-CCR5 cells): >100 µM; Papp at 100 μM [3]: 0.0562 ×10⁻⁶ cm/s

For `CC1=C(c2nc(-c3ccc(C#N)cc3)cs2)C(c2ccc(C(F)(F)F)nc2)NC(=O)N1` (stereo not shown) [1ar, 4-(2-(6-Methyl-2-oxo-4-(6-(trifluoromethyl)pyridin-3-yl)-1,2,3,4-tetrahydropyrimidin-5-yl)thiazol-4-yl)benzonitrile], which “TC50 (NL4-3 row)” value (MAGI-CCR5 cells) is on record?
Its value is >100 µM.

With `COc1ccc(-c2csc(C3=C(C)NC(=O)NC3c3cccc(O)c3)n2)cc1` (stereo not shown) [1b] as the compound, how does the “PBMC TC50” value (PBMCs) read?
The value was 91 ^e μM.

Which results are given for `CC1=C(c2nc(-c3ccc(C#N)cc3)cs2)C(c2cccc(O)c2)NC(=O)N1` (stereo not shown) [1i, 4-(2-(4-(3-Hydroxyphenyl)-6-methyl-2-oxo-1,2,3,4-tetrahydropyrimidin-5-yl)thiazol-4-yl)benzonitrile]?
PBMC TC50 (PBMCs): 84 ± 8.2 µM; Papp at 100 μM [3]: 0.0145 ×10⁻⁶ cm/s

What does the source list for `CC1=C(c2nc(-c3ccc(C#N)cc3)cs2)C(c2ccc(O)cc2)NC(=O)N1` (stereo not shown) [1l, 4-(2-(4-(4-Hydroxyphenyl)-6-methyl-2-oxo-1,2,3,4-tetrahydropyrimidin-5-yl)thiazol-4-yl)benzonitrile]?
TC50 (NL4-3 row) (MAGI-CCR5 cells): 46 ± 6.1 µM; Papp at 100 μM [3]: 0.0151 ×10⁻⁶ cm/s

Which “TC50 (NL4-3 row)” value (MAGI-CCR5 cells) does the source give for `COc1ccc(C2NC(=O)NC(C)=C2c2nc(-c3ccc(C#N)cc3)cs2)cc1` (stereo not shown) [1m, 4-(2-(4-(4-Methoxyphenyl)-6-methyl-2-oxo-1,2,3,4-tetrahydropyrimidin-5-yl)thiazol-4-yl)benzonitrile] here?
The value was 5.5 ± 1.0 µM.

What about the Papp at 100 μM [3] of the same compound?
Its Papp at 100 μM is 0.0776 ×10⁻⁶ cm/s.

What about the IC50 (HIV-1Ba-L; [7]) of the same compound?
The IC50 was < 0.15 µM.

Which IC50 (HIV-1Ba-L; [7]) does the source give for `CC1=C(c2nc(-c3ccc(C#N)cc3)cs2)C(c2ccc(Oc3ccccc3)cc2)NC(=O)N1` (stereo not shown) [1p, 4-(2-(6-Methyl-2-oxo-4-(4-phenoxyphenyl)-1,2,3,4-tetrahydropyrimidin-5-yl)thiazol-4-yl)benzonitrile] here?
Its IC50 is < 0.15 µM.

Which IC50 (HIV-1Ba-L; [7]) does the source give for `CC1=C(c2nc(-c3ccc(C#N)cc3)cs2)C(c2ccc(OCc3ccccc3)cc2)NC(=O)N1` (stereo not shown) [1q, 4-(2-(4-(4-(Benzyloxy)phenyl)-6-methyl-2-oxo-1,2,3,4-tetrahydropyrimidin-5-yl)thiazol-4-yl)benzonitrile] here?
The IC50 was < 0.15 µM.

With `CC1=C(c2nc(-c3ccc(C#N)cc3)cs2)[C@@H](c2cccc(O)c2)NC(=O)N1` [(R)-1i] as the compound, how does the “PBMC TC50” value (PBMCs) read?
Its value is >100 µM.

For `CC1=C(c2nc(-c3ccc(C#N)cc3)cs2)[C@H](c2cccc(O)c2)NC(=O)N1` [(S)-1i], which “RT biochemical IC50 (μM) ± SD” value [4] is on record?
Its value is “Not active”.

What about the “PBMC TC50” value (PBMCs) of the same compound?
Its value is >100 µM.

Which IC50 (HIV wildtype (NL4-3)) does the source give for `Cc1ccnc2c1NC(=O)c1cccnc1N2C1CC1` [NVP, nevirapine, reference compound] here?
The IC50 was 0.07 ± 0.03 µM.

What about the IC90 (HIV wildtype (NL4-3)) of the same compound?
The IC90 was 0.6 ± 0.07 µM.
